These results are taken from PubChem BioAssay (NCI).

Each structure is given as a SMILES string.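 Exposure lasted 48 hours, with cells grown in 96-well plates and compounds tested at five concentrations. TGI: concentration producing complete growth inhibition.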

The subject of the first test is DU-145 prostate. Briefly: inhibition of tumour cell growth, NCI panel, 48 h.
For `CCOC(=O)c1c(SCCN2CCCC2)n(-c2ccccc2)c(=S)n(-c2ccccc2)c1=O`, the TGI was 3.11 µM.

`Cc1nc2ccc([N+](=O)[O-])cc2c(=O)n1C(=S)Nc1cccc(Cl)c1` had a TGI greater than 100 µM.

`CCOC(=O)c1c(N)n(-c2ccccc2)c(=S)n(-c2ccccc2)c1=O` showed a TGI greater than 100 µM.

The subject of another test is SK-MEL-5 melanoma. Briefly: inhibition of tumour cell growth, NCI panel, 48 h.
The compound `Cc1nc2cc(C(F)(F)F)ccc2[nH]c1=O` yielded a TGI greater than 100 µM.

In the case of `CC1=CC=CC(C)(C)CC1(O[Si](C)(C)C)C(F)(F)F` (stereo not drawn), the TGI is greater than 100 µM.

For the compound `CN(C)c1ccc(/C(Br)=C2\OC(=O)c3ccccc32)cc1`, the TGI is greater than 100 µM.

In turn, `CN1C(=O)CN(NC(=O)C2=C(O)c3ccc(Br)cc3S(=O)(=O)N2)C1=S` gave a TGI greater than 100 µM.

On to `O=C1CC(c2ccc([N+](=O)[O-])cc2)C2(C(=O)NC(=S)NC2=O)C(c2ccc([N+](=O)[O-])cc2)C1` (stereo not drawn), for which the TGI was found to be 99.1 µM.

`O=C1OC[C@@H]2Cc3c([nH]c4ccccc34)[C@@H](c3ccc(O)cc3)N12`: the TGI stood at 33.2 µM.

In the case of `Nc1ncnc2c1ncn2C(=O)NC12CC3CC(CC(C3)C1)C2`, the TGI is greater than 100 µM.

`CC1=C2c3ccccc3N(C(=O)/C=C/C(=O)O)[C@H]2[C@H]2C(=O)OC(=O)[C@H]2C1`: the TGI was greater than 10 µM.

`CN1CCN(C(=S)N(C)C(=O)c2ccc(Cl)cc2)CC1` came in with a TGI greater than 100 µM.

`CCOP(=O)(OCC)/C(F)=C/c1ccccc1` yielded a TGI greater than 100 µM.

Compound `CC(C)(CO)N1C(=O)c2ccccc2C1(O)c1ccc(Cl)cc1` (stereo not drawn) returned a TGI greater than 100 µM.

For `Cc1cccc(N(CCC#N)S(=O)(=O)c2ccccc2)c1`, the TGI was greater than 100 µM.

Take `c1ccc2c(c1)CCCN1CCc3ccccc3C21` (stereo not drawn): the TGI was 70.9 µM.

In the case of `CN1CN(c2ccccc2)C2(CCN(CCCC3(c4cccs4)OCCO3)CC2)C1=O`, the TGI is greater than 100 µM.

`Cc1cc(O)cc(O)c1N=Nc1ccc([N+](=O)[O-])cc1` displayed a TGI of 38.4 µM.

In turn, `CCOC(=O)c1c(SCCN2CCCC2)n(-c2ccccc2)c(=S)n(-c2ccccc2)c1=O` had a TGI of 10 µM.

On to `Cc1nc2ccc([N+](=O)[O-])cc2c(=O)n1C(=S)Nc1cccc(Cl)c1`, for which the TGI was 28.9 µM.

Compound `CCOC(=O)c1c(N)n(-c2ccccc2)c(=S)n(-c2ccccc2)c1=O` gave a TGI greater than 100 µM.

In a further test the test system is MCF7 breast. Put plainly: inhibition of tumour cell growth, NCI panel, 48 h.
In turn, `Cc1nc2cc(C(F)(F)F)ccc2[nH]c1=O` gave a TGI greater than 100 µM.

The compound `CC1=CC=CC(C)(C)CC1(O[Si](C)(C)C)C(F)(F)F` (stereo not drawn) registered a TGI greater than 100 µM.

As for `CN(C)c1ccc(/C(Br)=C2\OC(=O)c3ccccc32)cc1`, the TGI was greater than 100 µM.

In turn, `CN1C(=O)CN(NC(=O)C2=C(O)c3ccc(Br)cc3S(=O)(=O)N2)C1=S` returned a TGI greater than 100 µM.

Take `O=C1CC(c2ccc([N+](=O)[O-])cc2)C2(C(=O)NC(=S)NC2=O)C(c2ccc([N+](=O)[O-])cc2)C1` (stereo not drawn): the TGI is 43.8 µM.

In turn, `O=C1OC[C@@H]2Cc3c([nH]c4ccccc34)[C@@H](c3ccc(O)cc3)N12` displayed a TGI greater than 100 µM.

Regarding `Nc1ncnc2c1ncn2C(=O)NC12CC3CC(CC(C3)C1)C2`, the TGI was greater than 100 µM.

`CC1=C2c3ccccc3N(C(=O)/C=C/C(=O)O)[C@H]2[C@H]2C(=O)OC(=O)[C@H]2C1` gave a TGI greater than 10 µM.

For the compound `CN1CCN(C(=S)N(C)C(=O)c2ccc(Cl)cc2)CC1`, the TGI was greater than 100 µM.

With `CCOP(=O)(OCC)/C(F)=C/c1ccccc1`, the TGI is greater than 100 µM.

Take `CC(C)(CO)N1C(=O)c2ccccc2C1(O)c1ccc(Cl)cc1` (stereo not drawn): the TGI was greater than 100 µM.

`Cc1cccc(N(CCC#N)S(=O)(=O)c2ccccc2)c1` showed a TGI greater than 100 µM.

`c1ccc2c(c1)CCCN1CCc3ccccc3C21` (stereo not drawn) showed a TGI greater than 100 µM.

The compound `CN1CN(c2ccccc2)C2(CCN(CCCC3(c4cccs4)OCCO3)CC2)C1=O` returned a TGI greater than 100 µM.

`Cc1cc(O)cc(O)c1N=Nc1ccc([N+](=O)[O-])cc1` gave a TGI greater than 100 µM.

Regarding `CCOC(=O)c1c(SCCN2CCCC2)n(-c2ccccc2)c(=S)n(-c2ccccc2)c1=O`, the TGI came out at 3.36 µM.

`Cc1nc2ccc([N+](=O)[O-])cc2c(=O)n1C(=S)Nc1cccc(Cl)c1` gave a TGI of 49.5 µM.

Turning to `CCOC(=O)c1c(N)n(-c2ccccc2)c(=S)n(-c2ccccc2)c1=O`, the TGI was greater than 100 µM.

The next test has as its system OVCAR-8 ovarian. Put plainly: inhibition of tumour cell growth, NCI panel, 48 h.
Consider `Cc1nc2cc(C(F)(F)F)ccc2[nH]c1=O`, for which the TGI was greater than 100 µM.

Take `CC1=CC=CC(C)(C)CC1(O[Si](C)(C)C)C(F)(F)F` (stereo not drawn): the TGI is greater than 100 µM.

`CN(C)c1ccc(/C(Br)=C2\OC(=O)c3ccccc32)cc1`: the TGI is greater than 100 µM.

In turn, `CN1C(=O)CN(NC(=O)C2=C(O)c3ccc(Br)cc3S(=O)(=O)N2)C1=S` gave a TGI greater than 100 µM.

`O=C1CC(c2ccc([N+](=O)[O-])cc2)C2(C(=O)NC(=S)NC2=O)C(c2ccc([N+](=O)[O-])cc2)C1` (stereo not drawn) had a TGI of 45.1 µM.

In the case of `O=C1OC[C@@H]2Cc3c([nH]c4ccccc34)[C@@H](c3ccc(O)cc3)N12`, the TGI was greater than 71.7 µM.

As for `Nc1ncnc2c1ncn2C(=O)NC12CC3CC(CC(C3)C1)C2`, the TGI was greater than 100 µM.

With `CC1=C2c3ccccc3N(C(=O)/C=C/C(=O)O)[C@H]2[C@H]2C(=O)OC(=O)[C@H]2C1`, the TGI is greater than 10 µM.

Compound `CN1CCN(C(=S)N(C)C(=O)c2ccc(Cl)cc2)CC1` displayed a TGI greater than 100 µM.

As to `CCOP(=O)(OCC)/C(F)=C/c1ccccc1`, the TGI was greater than 100 µM.

With `CC(C)(CO)N1C(=O)c2ccccc2C1(O)c1ccc(Cl)cc1` (stereo not drawn), the TGI is greater than 100 µM.

For the compound `Cc1cccc(N(CCC#N)S(=O)(=O)c2ccccc2)c1`, the TGI is greater than 100 µM.

Compound `c1ccc2c(c1)CCCN1CCc3ccccc3C21` (stereo not drawn) registered a TGI greater than 100 µM.

Turning to `CN1CN(c2ccccc2)C2(CCN(CCCC3(c4cccs4)OCCO3)CC2)C1=O`, the TGI is greater than 100 µM.
